Measured values as given in patent US20250115874A1, “Compositions And Methods For Making And Using Atherosclerotic Nanomatrix Vascular Sheets” (UAB RESEARCH FOUNDATION, priority 2023, published 2025).

How the values were obtained:
Assay type in all cases: cell-based, human
[1] = tested on: atherosclerosis-related gene expression of VSAs; test: VSA gene assay (qRT-PCR)
Method: Experimental: To create a large-scale VSA high throughput culture system, individual VSAs were fabricated in each well of a 48-well tissue culture plate using the method described in Example 4 (FIG. 7A, step 1). The VSAs were then divided into two groups. One group was treated with rosuvastatin (10 uM) and sirolimus (10 nM) by diluting the stock solution into the “culture medium 7” containing monocytes on day 0 (FIG. 7B, step 2). The treated and untreated VSAs were co-cultured for 10 days with fresh culture medium 7 with monocytes added on day 3 and day 7, respectively. On day 10, RNA was extracted using the TRIzol™ reagent (Invitrogen) and purified using the Direct-Zol™ RNA Miniprep Plus kit following the protocol (Zymo Research). EDTA was added before phase separation to bind the calcium and help disintegrate the nanomatrix VSAs. The upper transparent aqueous phase was collected and RNA was suspended in nuclease-free water. The concentration and purity of RNA for each sample were determined using an ND-1000 UV spectrophotometer (Nanodrop). Complementary DNA was synthesized using 50 ng of RNA and reverse transcribed in a 2720 Thermo Cycler (Applied Biosystems) using a Verso cDNA Synthesis Kit (Thermo Fisher) according to the manufacturer's protocol. Samples were prepared in a 96-well PCR plate using the TaqMan Master Mix protocol. Each sample consisted of 2 μL of cDNA solution, 10 μL of 2× master mix, 7 μL of RNA-free water, and 1 μL of gene primer from a TaqMan Gene Expression Assay kit (Applied Biosytems). The PCR plate was run in a LightCycler 480 (Roche Life Science) for the following cycles: pre-incubation at 50° C. for 2 minutes and 95° C. for 10 min; amplification for 45 cycles, at 95° C. for 15 seconds, and 60° C. for 1 minute during each cycle; melting at 95° C. for 5 seconds and 65° C. for 1 minute, and cooling at 40° C. for 30 seconds.
Experimental: (1) Fabrication of VSA high throughput culture systems: the large-scale VSA high throughput culture system was achieved by fabricating individual VSAs in each well of the 48-well tissue culture plate, following the same method described in Example 4 (FIG. 7A, step 1). (2) Divide the VSAs into two groups. (3) Treatment of VSAs in one group with curcumin (200 uM) or colchicine (100 nM) by dilution of the stock solution into the “culture medium 7” containing monocytes on day 0 (FIG. 7B, step 2). (4) The VSAs, treated or untreated, were co-cultured for 10 days. A fresh culture medium 7 with monocytes was added to the co-culture system on day 3 and day 7, respectively. (5) RNA extraction and real-time qRT-PCR: On day 10, before phase separation, EDTA (Ethylenediaminetetraacetic acid) was added to bind the calcium and help disintegrate the nanomatrix VSAs. For phase separation, TRIzol™ reagent was added to the samples (>9 times of the sample volume) and incubated for 5 min. Then chloroform was added, mixed by shaking, and centrifuged (11,600 g, 15 min, 4° C.) to obtain phase separation. The upper transparent aqueous phase was collected and purified using the Direct-Zol™ RNA Miniprep Plus kit following the protocol. RNA was suspended in nuclease-free water, and an ND-1000 UV spectrophotometer was used to quantify the concentration and purity of RNA for each sample. Complementary DNA was then synthesized using 50 ng of RNA, which was reverse transcribed in a 2720 Thermo Cycler (Applied Biosystems) using a Verso cDNA Synthesis Kit according to the manufacturer's protocol. Samples were prepared in a 96-well PCR plate using the TaqMan Master Mix protocol. Each sample consisted of 2 μL of cDNA solution, 10 μL of 2× master mix, 7 μL of RNA-free water, and 1 μL of gene primer from a TaqMan Gene Expression Assay kit. […]

[2] = tested on: foam cell formation on the VSA; test: VSA foam cell assay (BODIPY staining); conditions: for foam cell formation (BODIPY): day 10, vs. control 100%; for foam cell generation (BODIPY): day 10, vs. control
Method: Experimental: (1) Fabrication of large-scale VSA high throughput culture systems: Individual VSAs were fabricated in each well of a 48-well tissue culture plate, following the method described in Example 4 (FIG. 7A, step 1), to create a high throughput culture system for testing drug effects on atherosclerosis. (2) The VSAs were divided into two groups: treated and untreated. (3) The treated group was treated with rosuvastatin (10 uM) or sirolimus (10 nM) by dilution of the stock solution into the “culture medium 7” on day 0 (FIG. 7B, step 2). (4) The VSAs, both treated and untreated, were co-cultured for 10 days with a fresh culture medium 7 with monocytes added on day 3 and day 7, respectively. (5) BODIPY staining was used to quantify foam cell formation: On day 10, a 10 mM BODIPY stock solution was prepared by dissolving in DMSO and stored at −20° C. Before the experiment, a 100 times diluted working solution was prepared from the stock solution using PBS. The VSAs were gently washed with PBS, then BODIPY was added, incubated in the dark for 30 min, imaged immediately using a microscope, and quantified at ex/em 485 nm/520 nm.
Experimental: (1) Fabrication of VSA high throughput culture systems: the large-scale VSA high throughput culture system was achieved by fabricating individual VSAs in each well of the 48-well tissue culture plate, following the same method described in Example 4 (FIG. 7A, step 1). (2) Divide the VSAs into two groups. (3) Treatment of VSAs in one group with curcumin (200 uM) or colchicine (100 nM) by dilution of the stock solution into the “culture medium 7” containing monocytes on day 0 (FIG. 7B, step 2). (4) The VSAs, treated or untreated, were co-cultured for 10 days. A fresh culture medium 7 was added to the co-culture system on day 3 and day 7, respectively. (5) BODIPY staining: On day 10, 10 mM BODIPY stock solution was prepared by dissolving in DMSO and stored at −20° C. Before the experiment, 100 times diluted working solution was prepared from stock solution using PBS. Then, the VSAs treated or untreated with curcumin (200 uM), and colchicine (100 nM) were gently washed with PBS, then BODIPY was added and incubated in the dark.
Experimental: (1) Fabrication of VSA high throughput culture systems: the large-scale VSA high throughput culture system was achieved by fabricating individual VSAs in each well of the 48-well tissue culture plate, following the same method described in Example 4 (FIG. 7A, step 1). (2) Divide the VSAs into two groups. (3) Treatment of VSAs in one group with free miR-146a (600 nM) by dilution of the stock solution into the culture medium 7 on day 0 (FIG. 7B, step 2). (4) The VSAs, treated or untreated, were co-cultured for 10 days. […]

[3] = tested on: cytokine secretion of VSAs; test: VSA cytokine assay (ELISA of supernatant)
Method: (§1) Experimental: (1) Fabrication of VSA high throughput culture systems: large-scale VSA high throughput culture systems were achieved by fabricating individual VSAs in each well of the 48-well tissue culture plate, following the same method described in Example 4 (FIG. 7A, step 1). (2) Divide the VSAs into two groups. (3) Treatment of VSAs in one group with rosuvastatin (10 uM) or sirolimus (10 nM) by dilution of the stock solution into the culture medium 7 on day 0 (FIG. 7B, step 2). (4) The VSAs, treated or untreated, were culturing in culture medium 7 for 10 days. A fresh culture medium 7 was added to the co-culture system on day 3 and day 7, respectively. (5) ELISA: On day 10, the supernatant from VSAs was collected for ELISA to measure the significant inflammatory cytokine secretion.
as §1, with “systems: the” for “systems:”, “system was” for “systems were”, “curcumin (200” for “rosuvastatin (10”, “colchicine (100” for “sirolimus (10”, “cultured using” for “culturing in”, “measure” for “measure the significant”
as §1, with “systems: the” for “systems:”, “system was” for “systems were”, “free miR-146a (600 nM)” for “rosuvastatin (10 uM)”, “Lip-miR-146a (600” for “sirolimus (10”, “co-cultured” for “culturing in culture medium 7”, “Afresh” for “A fresh”

[4] = tested on: cytokine secretion of VSAs; test: VSA cytokine assay (ELISA of supernatant); remark: listed apart in the source
[5] = rosuvastatin 10 uM, day 10, compared to the control
[6] = rosuvastatin 10 uM, day 10, vs. control
[7] = sirolimus 10 nM, day 10, of the control group
[8] = sirolimus 10 nM, day 10, relative to the control
[9] = curcumin 200 uM, day 10, vs. control
[10] = colchicine 100 nM, day 10, vs. control

CC(C)c1nc(N(C)S(C)(=O)=O)nc(-c2ccc(F)cc2)c1/C=C/[C@@H](O)C[C@@H](O)CC(=O)O [rosuvastatin]
MMP-2 gene expression [1, 5]: 4.46±1.75%
VEGF-A gene expression [1, 5]: significantly lower
IL-6 gene expression ([1]; rosuvastatin 10 uM, day 10, of control): 5.20±0.38%
COL17A1 gene expression [1, 6]: 127.03±35.49 fold
PECAM-1 gene expression [1, 6]: 146.76±44.63 fold
foam cell formation (BODIPY) ([2]; rosuvastatin 10 uM): 50.77±8.32%
IFN-γ production [3, 6]: 44.03±3.20%
IL-1α production [3, 6]: 66.78±6.52%
IL-6 production [3, 6]: 71.50±4.34%
TNF-α production [3, 6]: 39.69±5.53%
IL-10 secretion ([4]; rosuvastatin 10 uM, day 10, compared with the control): 2.10±0.50 fold
IL-8 production [4, 6]: 48.64±6.17%

CO[C@H]1C[C@@H]2CC[C@@H](C)[C@@](O)(O2)C(=O)C(=O)N2CCCC[C@H]2C(=O)O[C@H]([C@H](C)C[C@@H]2CC[C@@H](O)[C@H](OC)C2)CC(=O)[C@H](C)/C=C(\C)[C@@H](O)[C@@H](OC)C(=O)[C@H](C)C[C@H](C)/C=C/C=C/C=C/1C [sirolimus]
foam cell formation (BODIPY) ([2]; sirolimus 10 nM): 42.73±10.62%
IFN-γ production [4, 7]: 43.64±17.04%
MCP-1 production [4, 7]: 22.76±2.56%
TNF-α production [4, 7]: 40.67±6.42%
IL-4 secretion [4, 8]: 6.42±3.59 fold
IL-13 secretion [4, 8]: 1.67±0.59 fold

COc1cc(/C=C/C(=O)CC(=O)/C=C/c2ccc(O)c(OC)c2)ccc1O [curcumin]
MMP-2 gene expression [1, 9]: 39.22±7.14%
PECAM-1 gene expression [1, 9]: 29.71±5.68%
VEGF-A gene expression [1, 9]: 38.01±5.68%
foam cell generation (BODIPY) ([2]; curcumin 200 uM): 31.23±5.68%
IL-1α production [3, 9]: 80.58±4.91%
IL-10 production [3, 9]: 2.10±0.29 fold
IL-8 production [4, 9]: 40.90±5.72%
MCP-1 production [4, 9]: 76.87±3.35%

COc1cc2c(c(OC)c1OC)-c1ccc(OC)c(=O)cc1[C@@H](NC(C)=O)CC2 [colchicine]
COL3A1 gene expression [1, 10]: 8.93±1.30%
MMP-2 gene expression [1, 10]: 6.36±1.44%
PECAM-1 gene expression [1, 10]: 3.35±0.68 fold
foam cell generation (BODIPY) ([2]; colchicine 100 nM): 50.86±4.57%
IL-1α production ([3]; colchicine 100 nM, day 10): 71.31±5.84%
IL-4 production [3, 10]: 1.39±0.14 fold
IL-8 production [3, 10]: 42.57±1.80%
IFN-γ production [4, 10]: 61.95±7.79%
MCP-1 production [4, 10]: 26.31±1.77%
TNF-α production [4, 10]: 53.16±7.92%
